From patent publication US20030130180A1, “Utilization of an aminopeptidase inhibitor” (priority 2000, published 2003)

Columns and labels:
[1] = test system: tumor cells and immune cells; experiment: Cell-biological experiments on blocking of polarization of tumor cells and immune cells; type: cell-based; conditions: general statement
Description: By means of a method of simultaneously detecting a number of cell surface proteins, it has been established that aminopeptidases will control cell surface proteins which are not part of the class of proteolytic enzymes, but belong to the class of the adhesion molecules, which adhesion molecules—in a certain combination and geometric array—will be decisive for the polarization of the cells. Consequently, aminopeptidases appear to be superordinate control proteins in a protein network consisting of up to 30 different cell surface protein species which—through specific interaction with one another—will control polarization of tumor cells and other invasive cells such as immune cells and which are listed above. The inhibition of at least one aminopeptidase will lead to a reproducible modification of surface protein combinations on the cell surface which will always also involve a modification of CD13. […] The term polarization as used here shall denote a process in which a primarily spherical cell will transition into an oblong, elongated cell shape, via various intermediate states. This process which constitutes a change of shape controlled by the complex protein network is the prerequisite for cell migration, since only cells of oblong shape are capable of migrating. The polarization process therefore needs to precede all cell migration processes, including invasion. […]

[2] = test system: tumor cells; conditions: in vitro, matrigel analytic system; cited from earlier work

CCCCC[C@H](CC(=O)NO)C(=O)N[C@H](C(=O)N1CCC[C@H]1CO)C(C)C [actinonin]
effectiveness as aminopeptidase inhibitor blocking polarization [1]: particularly effective | tumor cell invasion [2]: do not have an effect
